Assay results: ChEMBL document CHEMBL1777767, “Efficient radiosynthesis of 2-[(18)f]fluoroadenosine: a new route to 2-[(18)f]fluoropurine nucleosides” (ACS Med Chem Lett, 2010)

Experiments:
Assay type in all cases: ADME, organism-based
Settings in all cases: in vivo, 1 h
Blood = test: Biodistribution in Sprague-Dawley rat blood at 10.36 to 13.69 MBq, iv after 60 mins by gamma counting
Kidney = test: Biodistribution in Sprague-Dawley rat kidney at 10.36 to 13.69 MBq, iv after 60 mins by gamma counting
[1] = Biodistribution in Sprague-Dawley rat urine at 10.36 to 13.69 MBq, iv after 60 mins by gamma counting
Liver = test: Biodistribution in Sprague-Dawley rat liver at 10.36 to 13.69 MBq, iv after 60 mins by gamma counting
Brain = test: Biodistribution in Sprague-Dawley rat brain at 10.36 to 13.69 MBq, iv after 60 mins by gamma counting
Thymus = test: Biodistribution in Sprague-Dawley rat thymus at 10.36 to 13.69 MBq, iv after 60 mins by gamma counting
Heart = test: Biodistribution in Sprague-Dawley rat heart at 10.36 to 13.69 MBq, iv after 60 mins by gamma counting
Lung = test: Biodistribution in Sprague-Dawley rat lung at 10.36 to 13.69 MBq, iv after 60 mins by gamma counting
Intestine = test: Biodistribution in Sprague-Dawley rat intestine at 10.36 to 13.69 MBq, iv after 60 mins by gamma counting
Spleen = test: Biodistribution in Sprague-Dawley rat spleen at 10.36 to 13.69 MBq, iv after 60 mins by gamma counting

## Nc1nc([18F])nc2c1ncn2[C@@H]1O[C@H](CO)[C@@H](O)[C@H]1O
Blood
  Drug uptake: 0.47 % ID/g
Kidney
  Drug uptake: 3.75 % ID/g
[1]
  Drug uptake: 6.7 % ID/g
Liver
  Drug uptake: 0.72 % ID/g
Brain
  Drug uptake: 0.06 % ID/g
Thymus
  Drug uptake: 0.65 % ID/g
Heart
  Drug uptake: 3.22 % ID/g
Lung
  Drug uptake: 9.15 % ID/g
Intestine
  Drug uptake: 1.45 % ID/g
Spleen
  Drug uptake: 2.85 % ID/g
